Results taken from patent US20210255184A1, “Biosensor Device and Methods” (The New Zealand Institute for Plant and Food Research …, priority 2018, published 2021).

Biological target: T1, Or22a/Orco (Drosophila melanogaster, UniProt P81909)
T1 construct: his-tag; made in house; host or cells: baculovirus-infected Sf9 cells
T1 sequence (P81909 1-397): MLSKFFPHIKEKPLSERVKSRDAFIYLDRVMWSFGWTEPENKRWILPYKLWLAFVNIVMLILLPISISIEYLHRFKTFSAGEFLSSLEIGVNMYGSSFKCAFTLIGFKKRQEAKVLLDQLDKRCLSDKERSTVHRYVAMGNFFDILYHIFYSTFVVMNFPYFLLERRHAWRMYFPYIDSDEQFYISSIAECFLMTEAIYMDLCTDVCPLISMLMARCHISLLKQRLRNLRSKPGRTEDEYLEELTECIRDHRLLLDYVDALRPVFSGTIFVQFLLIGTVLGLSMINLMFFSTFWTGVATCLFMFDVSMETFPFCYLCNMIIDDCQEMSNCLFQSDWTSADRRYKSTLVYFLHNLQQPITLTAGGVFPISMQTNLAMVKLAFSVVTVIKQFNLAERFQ
T1 sequence (Q9VNB5 1-486 partner): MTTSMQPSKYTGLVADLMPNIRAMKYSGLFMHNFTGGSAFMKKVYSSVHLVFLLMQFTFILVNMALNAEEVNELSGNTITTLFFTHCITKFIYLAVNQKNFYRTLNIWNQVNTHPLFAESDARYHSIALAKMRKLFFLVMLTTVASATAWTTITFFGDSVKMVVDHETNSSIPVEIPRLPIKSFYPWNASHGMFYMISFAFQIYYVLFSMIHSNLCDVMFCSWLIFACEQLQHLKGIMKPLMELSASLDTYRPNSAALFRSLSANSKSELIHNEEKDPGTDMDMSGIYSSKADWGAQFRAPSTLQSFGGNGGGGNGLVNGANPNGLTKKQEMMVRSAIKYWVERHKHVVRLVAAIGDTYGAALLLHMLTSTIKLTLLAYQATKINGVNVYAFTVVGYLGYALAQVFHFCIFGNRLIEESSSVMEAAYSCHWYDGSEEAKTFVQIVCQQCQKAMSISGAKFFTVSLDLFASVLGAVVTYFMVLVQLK
Assay: EIS sensor, Or22a/Orco liposomes on gold electrode
Type: biochemical
Procedure: Prior to their use, liposomes were defrosted on ice and then destabilized by incubating with 0.2% CHAPS for 15 min at room temperature. Then 200 μg of purified odorant receptor^28 was added to 1 mg of liposomes and rotated at 10 rpm for 1 h at room temperature. Excess detergent was removed by four additions of 25 mg of Bio-Beads SM-2 (Bio-Rad, USA) and incubation at 4° C. for 30 min, 2 h, overnight and a further 2 h respectively. The Bio-Beads were removed after each incubation period. The OrX or OrX/Orco integrated liposomes were pelleted by centrifugation at 100,000 g for 1 h, and were resuspended in 500 μL of rehydration buffer. Integration of OrXs and Orco into liposomes was assessed by density gradient ultracentrifugation (DGU) using Accudenz (Accurate Chemical & Scientific Corporation, USA). The integrated liposomes were brought to 40% Accudenz by the addition of an equal volume of 80% Accudenz solution, placed at the bottom of an ultra-centrifugation tube, and overlaid with 30% Accudenz solution, and DGU buffer (25 mM HEPES pH 7.5, 100 mM NaCl, 10% glycerol). The sample was then centrifuged at 100,000 g for 4 h at 4° C. Liposomes will float to the top of the gradient after Accudenz DGU due to their low density.
2 mM MHA was prepared by dissolving 1.36 μl of MHA in 5 ml ethanol (AR grade). The cleaned electrodes were immersed into MHA solution and incubated overnight. The next day, all the electrodes were washed with ethanol and deionised water thoroughly in order to remove the unreacted acid. A 2:1 mol:mol ratio of EDC:NHS (100 mM EDC, 50 mM NHS) was prepared in 2 ml PBS (pH=6.5) solution. Then, the electrodes were covered in 100 μl of this solution at 28° C. for an hour to activate the carboxylic (COOH) groups of the MHA.
PBS solution was prepared by immersing one tablet of PBS in 200 ml of milli-Q water (according to manufacturers instructions) and filtered using 0.2-μm syringe filter. The pH of the prepared buffer solution was measured with a pH meter. […]

With `CCCCCC(=O)OC` [methyl hexanoate] the limit of detection (EIS dose response, ligand 1 aM to 100 μM) was 0.1 fM, the Sensitivity limit (Table 1, * estimated visually from dose response graph) was ~10^−16 M* and the “Detection Range” value (Table 3) was 10^−16-10^−5 M.
